Data: publication doi:10.1101/2021.04.08.439011v1 (biorxiv, 2021)
Like-named read-outs stand apart in the source and are kept apart here.

Columns and labels:
ALK = ALK (Homo sapiens, UniProt Q9UM73); details: 1 µM; binder
BLK = BLK (Homo sapiens, UniProt P51451); details: 1 µM; binder
CAMK2A = CAMK2A (Homo sapiens, UniProt Q9UQM7); details: 1 µM; binder
CAMKK1 = CAMKK1 (Homo sapiens, UniProt Q8N5S9); details: 1 µM; binder
CDKL1 = CDKL1 (Homo sapiens, UniProt Q00532); details: 1 µM; binder
DAPK1 = DAPK1 (Homo sapiens, UniProt P53355); details: 1 µM; binder
DCAMKL3 = DCAMKL3 (Homo sapiens, UniProt Q9C098); details: 1 µM; binder
DRAK1 = DRAK1 (Homo sapiens, UniProt Q9UEE5); details: 1 µM; binder
Sequence of DRAK1 (Q9UEE5 whole entry): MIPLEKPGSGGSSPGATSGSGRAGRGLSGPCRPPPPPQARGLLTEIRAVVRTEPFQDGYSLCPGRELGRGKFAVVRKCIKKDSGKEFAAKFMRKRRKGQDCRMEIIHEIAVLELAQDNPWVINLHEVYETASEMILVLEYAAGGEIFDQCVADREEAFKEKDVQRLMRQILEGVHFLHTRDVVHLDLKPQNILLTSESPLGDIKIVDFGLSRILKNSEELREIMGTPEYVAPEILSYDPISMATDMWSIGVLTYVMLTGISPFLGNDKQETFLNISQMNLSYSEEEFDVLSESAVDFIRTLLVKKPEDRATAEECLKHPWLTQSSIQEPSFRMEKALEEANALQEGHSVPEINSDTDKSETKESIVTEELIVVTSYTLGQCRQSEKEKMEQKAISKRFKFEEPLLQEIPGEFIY

DRAK2 = DRAK2 (Homo sapiens, UniProt O94768); details: 1 µM; binder
Sequence of DRAK2 (O94768 whole entry): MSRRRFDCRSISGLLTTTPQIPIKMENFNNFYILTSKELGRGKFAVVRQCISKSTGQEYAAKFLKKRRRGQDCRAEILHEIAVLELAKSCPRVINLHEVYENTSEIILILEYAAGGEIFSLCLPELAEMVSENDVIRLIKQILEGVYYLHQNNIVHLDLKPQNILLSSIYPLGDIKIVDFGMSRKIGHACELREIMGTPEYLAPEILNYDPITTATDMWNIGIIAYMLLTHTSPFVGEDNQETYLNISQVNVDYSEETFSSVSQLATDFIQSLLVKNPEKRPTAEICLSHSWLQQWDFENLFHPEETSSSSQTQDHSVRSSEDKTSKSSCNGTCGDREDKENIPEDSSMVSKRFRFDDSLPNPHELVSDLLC

EGFR(G719C) = EGFR(G719C) (Homo sapiens, UniProt P00533, G719C); details: 1 µM; binder
EGFR(T790M) = EGFR(T790M) (Homo sapiens, UniProt P00533, T790M); details: 1 µM; binder
ERN1 = ERN1 (Homo sapiens, UniProt O75460); details: 1 µM; binder
FER = FER (Homo sapiens, UniProt P16591); details: 1 µM; binder
Sequence of FER (P16591 whole entry): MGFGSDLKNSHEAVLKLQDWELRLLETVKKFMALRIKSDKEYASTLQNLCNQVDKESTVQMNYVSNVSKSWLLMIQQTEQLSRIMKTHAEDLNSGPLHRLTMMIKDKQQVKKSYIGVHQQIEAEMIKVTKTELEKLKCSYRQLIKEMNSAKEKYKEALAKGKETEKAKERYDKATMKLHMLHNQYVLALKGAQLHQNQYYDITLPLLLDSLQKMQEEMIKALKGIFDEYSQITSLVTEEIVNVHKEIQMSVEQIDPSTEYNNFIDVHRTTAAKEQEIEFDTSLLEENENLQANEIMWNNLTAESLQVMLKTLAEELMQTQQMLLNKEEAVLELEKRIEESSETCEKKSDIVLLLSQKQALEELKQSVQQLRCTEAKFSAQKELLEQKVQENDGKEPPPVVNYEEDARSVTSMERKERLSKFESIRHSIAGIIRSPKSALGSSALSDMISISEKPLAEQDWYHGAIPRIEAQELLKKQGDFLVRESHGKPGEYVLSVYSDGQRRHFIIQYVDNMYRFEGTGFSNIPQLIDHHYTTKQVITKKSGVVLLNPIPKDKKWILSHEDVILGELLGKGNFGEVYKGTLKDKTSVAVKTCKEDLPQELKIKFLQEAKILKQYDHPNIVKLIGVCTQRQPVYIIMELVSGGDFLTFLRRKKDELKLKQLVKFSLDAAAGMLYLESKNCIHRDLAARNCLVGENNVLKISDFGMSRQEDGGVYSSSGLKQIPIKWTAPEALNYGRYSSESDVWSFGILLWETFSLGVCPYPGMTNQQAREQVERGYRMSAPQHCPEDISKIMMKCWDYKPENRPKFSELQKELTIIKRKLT

IKK-epsilon = IKK-epsilon (Homo sapiens, UniProt Q14164); details: 1 µM; binder
Sequence of IKK-epsilon (Q14164 whole entry): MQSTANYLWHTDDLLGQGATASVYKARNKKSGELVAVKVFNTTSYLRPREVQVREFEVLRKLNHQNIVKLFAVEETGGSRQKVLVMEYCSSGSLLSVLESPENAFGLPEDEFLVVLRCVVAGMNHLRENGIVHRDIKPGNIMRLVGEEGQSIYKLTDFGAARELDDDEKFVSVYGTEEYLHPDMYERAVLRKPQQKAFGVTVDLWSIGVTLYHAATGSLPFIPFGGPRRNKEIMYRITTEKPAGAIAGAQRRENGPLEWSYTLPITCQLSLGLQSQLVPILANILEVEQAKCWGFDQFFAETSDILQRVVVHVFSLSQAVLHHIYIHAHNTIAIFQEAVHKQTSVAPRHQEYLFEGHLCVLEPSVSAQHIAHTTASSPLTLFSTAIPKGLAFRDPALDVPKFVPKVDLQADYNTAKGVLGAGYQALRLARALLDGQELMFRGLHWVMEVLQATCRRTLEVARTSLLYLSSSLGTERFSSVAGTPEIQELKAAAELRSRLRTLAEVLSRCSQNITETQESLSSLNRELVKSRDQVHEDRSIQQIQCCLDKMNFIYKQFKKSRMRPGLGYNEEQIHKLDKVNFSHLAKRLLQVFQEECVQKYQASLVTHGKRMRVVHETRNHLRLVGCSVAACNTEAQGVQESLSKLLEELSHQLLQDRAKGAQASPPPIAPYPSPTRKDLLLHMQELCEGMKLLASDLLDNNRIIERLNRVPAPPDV

LCK = LCK (Homo sapiens, UniProt P06239); details: 1 µM; binder
MAP3K1 = MAP3K1 (Homo sapiens, UniProt Q13233); details: 1 µM; binder
MAP3K15 = MAP3K15 (Homo sapiens, UniProt Q6ZN16); details: 1 µM; binder
Sequence of MAP3K15 (Q6ZN16 whole entry): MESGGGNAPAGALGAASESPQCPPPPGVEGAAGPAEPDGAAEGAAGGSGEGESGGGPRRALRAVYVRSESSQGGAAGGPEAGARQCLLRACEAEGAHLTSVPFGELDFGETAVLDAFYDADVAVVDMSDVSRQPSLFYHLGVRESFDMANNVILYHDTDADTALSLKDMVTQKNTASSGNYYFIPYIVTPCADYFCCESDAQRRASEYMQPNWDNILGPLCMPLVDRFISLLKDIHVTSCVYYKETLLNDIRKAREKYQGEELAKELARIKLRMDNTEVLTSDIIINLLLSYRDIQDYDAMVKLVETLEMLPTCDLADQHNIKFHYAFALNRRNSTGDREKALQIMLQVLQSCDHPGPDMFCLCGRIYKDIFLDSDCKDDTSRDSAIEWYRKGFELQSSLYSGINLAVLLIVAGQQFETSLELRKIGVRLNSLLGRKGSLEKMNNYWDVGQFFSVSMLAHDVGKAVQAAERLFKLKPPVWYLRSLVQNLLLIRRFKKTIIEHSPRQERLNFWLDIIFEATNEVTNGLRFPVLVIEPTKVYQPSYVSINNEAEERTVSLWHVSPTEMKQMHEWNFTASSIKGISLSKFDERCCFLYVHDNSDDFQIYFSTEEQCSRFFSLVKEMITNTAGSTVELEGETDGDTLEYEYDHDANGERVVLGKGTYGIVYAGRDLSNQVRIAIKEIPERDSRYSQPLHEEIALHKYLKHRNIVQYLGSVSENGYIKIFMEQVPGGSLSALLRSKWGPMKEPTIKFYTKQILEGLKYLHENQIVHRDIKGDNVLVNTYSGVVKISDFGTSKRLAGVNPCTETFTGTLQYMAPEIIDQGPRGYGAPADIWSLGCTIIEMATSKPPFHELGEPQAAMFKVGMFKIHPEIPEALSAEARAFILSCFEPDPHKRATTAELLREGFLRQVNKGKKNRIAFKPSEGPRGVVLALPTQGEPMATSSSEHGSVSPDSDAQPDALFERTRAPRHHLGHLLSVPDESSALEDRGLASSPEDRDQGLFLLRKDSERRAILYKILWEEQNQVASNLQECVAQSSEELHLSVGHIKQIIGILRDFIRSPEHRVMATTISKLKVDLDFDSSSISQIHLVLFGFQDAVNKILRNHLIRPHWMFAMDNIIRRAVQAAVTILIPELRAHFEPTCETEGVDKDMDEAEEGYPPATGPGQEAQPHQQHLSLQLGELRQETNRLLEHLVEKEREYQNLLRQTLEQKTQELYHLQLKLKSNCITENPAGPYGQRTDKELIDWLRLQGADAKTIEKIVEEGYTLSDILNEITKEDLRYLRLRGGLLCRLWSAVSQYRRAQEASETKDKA

MAP4K5 = MAP4K5 (Homo sapiens, UniProt Q9Y4K4); details: 1 µM; binder
MARK2 = MARK2 (Homo sapiens, UniProt Q7KZI7); details: 1 µM; binder
NEK1 = NEK1 (Homo sapiens, UniProt Q96PY6); details: 1 µM; binder
OSR1 = OSR1 (Homo sapiens, UniProt O95747); details: 1 µM; binder
PAK3 = PAK3 (Homo sapiens, UniProt O75914); details: 1 µM; binder
PIK3CA = PIK3CA (Homo sapiens, UniProt P42336); details: 1 µM; binder
PIK3CA(I800L) = PIK3CA(I800L) (Homo sapiens, UniProt P42336, I800L); details: 1 µM; binder
PIK3CB = PIK3CB (Homo sapiens, UniProt P42338); details: 1 µM; binder
PIM1 = PIM1 (Homo sapiens, UniProt P11309); details: 1 µM; binder
Sequence of PIM1 (P11309 whole entry): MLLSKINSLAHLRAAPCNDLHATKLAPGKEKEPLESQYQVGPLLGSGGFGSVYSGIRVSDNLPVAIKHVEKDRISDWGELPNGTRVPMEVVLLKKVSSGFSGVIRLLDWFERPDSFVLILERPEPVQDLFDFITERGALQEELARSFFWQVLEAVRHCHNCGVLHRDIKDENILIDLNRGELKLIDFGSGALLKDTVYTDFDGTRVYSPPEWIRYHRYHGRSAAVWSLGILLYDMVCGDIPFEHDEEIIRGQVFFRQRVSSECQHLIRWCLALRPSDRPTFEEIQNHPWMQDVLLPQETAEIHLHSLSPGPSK

ROS1 = ROS1 (Homo sapiens, UniProt P08922); details: 1 µM; binder
RPS6KA2 = RPS6KA2 (Homo sapiens, UniProt Q15349); details: binder
Sequence of RPS6KA2 (Q15349 whole entry): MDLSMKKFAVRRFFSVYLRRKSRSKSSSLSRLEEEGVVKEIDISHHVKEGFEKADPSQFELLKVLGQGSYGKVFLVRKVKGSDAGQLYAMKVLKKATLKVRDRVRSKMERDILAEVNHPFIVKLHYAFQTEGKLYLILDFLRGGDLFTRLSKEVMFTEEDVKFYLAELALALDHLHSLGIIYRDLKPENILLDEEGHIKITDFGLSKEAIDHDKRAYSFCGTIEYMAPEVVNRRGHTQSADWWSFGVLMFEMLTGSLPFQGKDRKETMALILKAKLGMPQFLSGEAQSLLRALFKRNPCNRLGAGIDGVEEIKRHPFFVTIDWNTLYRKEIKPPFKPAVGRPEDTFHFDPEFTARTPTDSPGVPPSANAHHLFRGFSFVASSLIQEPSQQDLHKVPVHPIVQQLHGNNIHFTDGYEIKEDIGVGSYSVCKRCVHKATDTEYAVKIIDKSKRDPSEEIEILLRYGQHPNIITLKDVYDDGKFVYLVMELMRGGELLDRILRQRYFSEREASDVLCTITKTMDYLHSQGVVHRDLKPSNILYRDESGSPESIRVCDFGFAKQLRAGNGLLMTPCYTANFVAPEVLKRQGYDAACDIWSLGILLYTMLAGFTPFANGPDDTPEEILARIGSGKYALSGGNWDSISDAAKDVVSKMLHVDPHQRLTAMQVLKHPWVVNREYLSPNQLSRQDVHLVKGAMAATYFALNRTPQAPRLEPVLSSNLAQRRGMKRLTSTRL

STK39 = STK39 (Homo sapiens, UniProt Q9UEW8); details: 1 µM; binder
TIE1 = TIE1 (Homo sapiens, UniProt P35590); details: 1 µM; binder

Sequence of CDKL1 (Q00532 whole entry): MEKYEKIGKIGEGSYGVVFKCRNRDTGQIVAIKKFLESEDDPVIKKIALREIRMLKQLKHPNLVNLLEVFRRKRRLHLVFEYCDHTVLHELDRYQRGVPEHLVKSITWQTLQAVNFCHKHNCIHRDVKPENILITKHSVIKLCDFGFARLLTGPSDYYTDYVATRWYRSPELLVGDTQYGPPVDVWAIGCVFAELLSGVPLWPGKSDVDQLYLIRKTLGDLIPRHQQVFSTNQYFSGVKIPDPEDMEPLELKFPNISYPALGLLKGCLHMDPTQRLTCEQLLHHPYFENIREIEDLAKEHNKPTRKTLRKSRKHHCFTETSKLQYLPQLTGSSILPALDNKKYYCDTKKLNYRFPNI

SMILES: CNc1ncc2cc(-c3ccc(-c4cccc(C)n4)cc3Cl)c(=O)n(C[C@H]3OC[C@H](N)CO3)c2n1 [compound 6, G-5555]
- Percent Control (ALK): 84%
- Percent Control (BLK): 99%
- Percent Control (CAMK2A): 88%
- Percent Control (CAMKK1): 100%
- Percent Control (CDKL1): 100%
- Percent Control (DAPK1): 100%
- Percent Control (DCAMKL3): 0.5%
- Percent Control (DRAK1): 100%
- Percent Control (DRAK2): 100%
- Percent Control (EGFR(G719C)): 100%
- Percent Control (EGFR(T790M)): 85%
- Percent Control (ERN1): 100%
- Percent Control (FER): 100%
- Percent Control (IKK-epsilon): 78%
- Percent Control (LCK): 11%
- Percent Control (MAP3K1): 98%
- Percent Control (MAP3K15): 48%
- Percent Control (MAP4K5): 5.3%
- Percent Control (MARK2): 49%
- Percent Control (NEK1): 100%
- Percent Control (OSR1): 100%
- Percent Control (PAK3): 100%
- Percent Control (PIK3CA): 100%
- Percent Control (PIK3CA(I800L)): 100%
- Percent Control (PIK3CB): 97%
- Percent Control (PIM1): 100%
- Percent Control (ROS1): 100%
- Percent Control (RPS6KA2; Kin.Dom.1 N-terminal): 57%
- Percent Control (RPS6KA2; Kin.Dom.2 C-terminal, 1 µM): 92%
- Percent Control (STK39): 100%
- Percent Control (TIE1): 94%
